Laboratory results: the NIST ThermoML archive (doi:10.1021/acs.jced.5b00201)
± gives the expanded uncertainty stated by the source.

Test: xn = mol fraction of the nth substance listed
Details: 298.2 K, 100 kPa, Liquid, Pycnometric method

Structure (SMILES): Cc1ccc(-c2ncc(Cl)cc2-c2ccc(S(C)(=O)=O)cc2)cn1 [etoricoxib] + C1COCCO1
- mass density (x1 = 0.07301): 1026.8 ± 0.9 kg/m3

Structure (SMILES): Cc1ccc(-c2ncc(Cl)cc2-c2ccc(S(C)(=O)=O)cc2)cn1 [etoricoxib] + CC(=O)N(C)C
- mass density (x1 = 0.08112): 942.7 ± 0.8 kg/m3

Structure (SMILES): Cc1ccc(-c2ncc(Cl)cc2-c2ccc(S(C)(=O)=O)cc2)cn1 [etoricoxib] + CCO
- mass density (x1 = 0.05374): 819.9 ± 0.7 kg/m3

Structure (SMILES): Cc1ccc(-c2ncc(Cl)cc2-c2ccc(S(C)(=O)=O)cc2)cn1 [etoricoxib] + CN(C)C=O
- mass density (x1 = 0.06899): 952.7 ± 0.8 kg/m3

Structure (SMILES): Cc1ccc(-c2ncc(Cl)cc2-c2ccc(S(C)(=O)=O)cc2)cn1 [etoricoxib] + C[S+](C)[O-]
- mass density (x1 = 0.06044): 1105.6 ± 1 kg/m3

Structure (SMILES): Cc1ccc(-c2ncc(Cl)cc2-c2ccc(S(C)(=O)=O)cc2)cn1 [etoricoxib] + O
- mass density (x1 = 1.56e-05): 994.8 ± 0.8 kg/m3

Structure (SMILES): Cc1ccc(-c2ncc(Cl)cc2-c2ccc(S(C)(=O)=O)cc2)cn1 [etoricoxib] + OCCCCO
- mass density (x1 = 0.07226): 1039.8 ± 0.9 kg/m3
